Data as given in US6358885B1, “Substituted phenylheterocyclic herbicides” (Mississippi State University, priority 1992, dated 2002).

Legend:
barnyardgrass [1] = test: Test E paddy water application plant response rating 0 to 100; assay type: in vivo, Echinochloa crus-galli; conditions: Flood, 0 to 100 scale, approx. 21 days
Description: (§1) Plastic pots were partially filled with silt loam soil. […] At testing, the water level for all plantings was raised to 2 cm above the soil surface. Chemical treatments were formulated in a non-phytotoxic solvent and applied directly to the paddy water. Treated plants and controls were maintained in a greenhouse for approximately 21 days, after which all species were compared to controls and visually evaluated. […] A dash (-) response means no test result.

Japonica rice [2] = test: as above; assay type: in vivo, oryza sativa; conditions: Flood, 0 to 100 scale, approx. 21 days
Description: as §1

waterchestnut = test: Test D paddy water application plant response rating 0 to 100; assay type: in vivo, Eleocharis spp.; conditions: 0 to 100 scale, approx. 21 days
Description: (§2) Plastic pots were partially filled with silt loam soil. The soil was then saturated with water. […] After planting, water levels were raised to 3 cm above the soil surface and maintained at this level throughout the test. Chemical treatments were formulated in a non-phytotoxic solvent and applied directly to the paddy water. Treated plants and controls were maintained in a greenhouse for approximately 21 days, after which all species were compared to controls and visually evaluated. […] A dash (-) response means no test result.

Japonica rice [3] = test: as above; assay type: in vivo, Oryza sativa; conditions: 0 to 100 scale, approx. 21 days
Description: as §2

barnyardgrass [4] = test: as above; assay type: in vivo, Echinochloa crus-galli; conditions: 0 to 100 scale, approx. 21 days
Description: as §2

umbrella sedge = test: as above; assay type: in vivo, Cyperus difformis; conditions: 0 to 100 scale, approx. 21 days
Description: as §2

duck salad = test: as above; assay type: in vivo, Heteranthera limosa; conditions: 0 to 100 scale, approx. 21 days
Description: as §2

arrowhead = test: as above; assay type: in vivo, Sagittaria spp.; conditions: 0 to 100 scale, approx. 21 days
Description: as §2

C=CCN1C(=O)COc2cc(F)c(-c3nn4c(c3Br)CCCC4)cc21 [Compound 41]
Barnyardgrass 2 plant response rating (barnyardgrass [1]; Rate 8 g/ha): 25 | Barnyardgrass 3 plant response rating (barnyardgrass [1]; Rate 8 g/ha): 20 | Barnyardgrass 2 plant response rating (barnyardgrass [1]; Rate 16 g/ha): 30 | Barnyardgrass 3 plant response rating (barnyardgrass [1]; Rate 16 g/ha): 25 | Barnyardgrass 2 plant response rating (barnyardgrass [1]; Rate 32 g/ha): 55 | Barnyardgrass 3 plant response rating (barnyardgrass [1]; Rate 32 g/ha): 35 | Barnyardgrass 2 plant response rating (barnyardgrass [1]; Rate 64 g/ha): 65 | Barnyardgrass 3 plant response rating (barnyardgrass [1]; Rate 64 g/ha): 45 | Barnyardgrass 2 plant response rating (barnyardgrass [1]; Rate 125 g/ha): 98 | Barnyardgrass 3 plant response rating (barnyardgrass [1]; Rate 125 g/ha): 55 | Japonica 1 plant response rating (Japonica rice [2]; Rate 8 g/ha): 25 | Japonica 2 plant response rating (Japonica rice [2]; Rate 8 g/ha): 15 | Japonica 1 plant response rating (Japonica rice [2]; Rate 16 g/ha): 35 | Japonica 2 plant response rating (Japonica rice [2]; Rate 16 g/ha): 20 | Japonica 1 plant response rating (Japonica rice [2]; Rate 32 g/ha): 45 | Japonica 2 plant response rating (Japonica rice [2]; Rate 32 g/ha): 30 | Japonica 1 plant response rating (Japonica rice [2]; Rate 64 g/ha): 65 | Japonica 2 plant response rating (Japonica rice [2]; Rate 64 g/ha): 45 | Japonica 1 plant response rating (Japonica rice [2]; Rate 125 g/ha): 95 | Japonica 2 plant response rating (Japonica rice [2]; Rate 125 g/ha): 55

COCN1C(=O)COc2cc(F)c(-c3nn4c(c3Cl)CCCC4)cc21 [Compound 55]
Barnyardgrass 2 plant response rating (barnyardgrass [1]; Rate 8 g/ha): 15 | Barnyardgrass 3 plant response rating (barnyardgrass [1]; Rate 8 g/ha): 20 | Barnyardgrass 2 plant response rating (barnyardgrass [1]; Rate 16 g/ha): 70 | Barnyardgrass 3 plant response rating (barnyardgrass [1]; Rate 16 g/ha): 40 | Barnyardgrass 2 plant response rating (barnyardgrass [1]; Rate 32 g/ha): 80 | Barnyardgrass 3 plant response rating (barnyardgrass [1]; Rate 32 g/ha): 50 | Barnyardgrass 2 plant response rating (barnyardgrass [1]; Rate 64 g/ha): 100 | Barnyardgrass 3 plant response rating (barnyardgrass [1]; Rate 64 g/ha): 75 | Waterchestnut plant response rating (waterchestnut; Rate 4 g/ha): 0 | Waterchestnut plant response rating (waterchestnut; Rate 8 g/ha): 0 | Waterchestnut plant response rating (waterchestnut; Rate 16 g/ha): 10 | Waterchestnut plant response rating (waterchestnut; Rate 32 g/ha): 15 | Waterchestnut plant response rating (waterchestnut; Rate 64 g/ha): 20 | Japonica 1 plant response rating (Japonica rice [2]; Rate 8 g/ha): 25 | Japonica 2 plant response rating (Japonica rice [2]; Rate 8 g/ha): 15 | Japonica 1 plant response rating (Japonica rice [2]; Rate 16 g/ha): 75 | Japonica 2 plant response rating (Japonica rice [2]; Rate 16 g/ha): 20 | Japonica 1 plant response rating (Japonica rice [2]; Rate 32 g/ha): 85 | Japonica 2 plant response rating (Japonica rice [2]; Rate 32 g/ha): 25 | Japonica 1 plant response rating (Japonica rice [2]; Rate 64 g/ha): 98 | Japonica 2 plant response rating (Japonica rice [2]; Rate 64 g/ha): 35 | Japonica rice plant response rating (Japonica rice [3]; Rate 4 g/ha): 10 | Japonica rice plant response rating (Japonica rice [3]; Rate 8 g/ha): 10 | Japonica rice plant response rating (Japonica rice [3]; Rate 16 g/ha): 20 | Japonica rice plant response rating (Japonica rice [3]; Rate 32 g/ha): 25 | Japonica rice plant response rating (Japonica rice [3]; Rate 64 g/ha): 25 | Barnyardgrass 2 plant response rating (barnyardgrass [4]; Rate 4 g/ha): 0 | Barnyardgrass 2 plant response rating (barnyardgrass [4]; Rate 8 g/ha): 0 | Barnyardgrass 2 plant response rating (barnyardgrass [4]; Rate 16 g/ha): 10 | Barnyardgrass 2 plant response rating (barnyardgrass [4]; Rate 32 g/ha): 40 | Barnyardgrass 2 plant response rating (barnyardgrass [4]; Rate 64 g/ha): 100 | Umbrella sedge plant response rating (umbrella sedge; Rate 4 g/ha): 0 | Umbrella sedge plant response rating (umbrella sedge; Rate 8 g/ha): 0 | Umbrella sedge plant response rating (umbrella sedge; Rate 16 g/ha): 20 | Umbrella sedge plant response rating (umbrella sedge; Rate 32 g/ha): 80 | Umbrella sedge plant response rating (umbrella sedge; Rate 64 g/ha): 80 | Duck salad plant response rating (duck salad; Rate 4 g/ha): 0 | Duck salad plant response rating (duck salad; Rate 8 g/ha): 0 | Duck salad plant response rating (duck salad; Rate 16 g/ha): 0 | Duck salad plant response rating (duck salad; Rate 32 g/ha): 0 | Duck salad plant response rating (duck salad; Rate 64 g/ha): 10 | Arrowhead plant response rating (arrowhead; Rate 4 g/ha): 0 | Arrowhead plant response rating (arrowhead; Rate 8 g/ha): 0 | Arrowhead plant response rating (arrowhead; Rate 16 g/ha): 20 | Arrowhead plant response rating (arrowhead; Rate 32 g/ha): 20 | Arrowhead plant response rating (arrowhead; Rate 64 g/ha): 30

C=C(Cl)COc1cc(-c2nn3c(c2Cl)CCCC3)c(F)cc1Cl [Compound 40]
Barnyardgrass 2 plant response rating (barnyardgrass [1]; Rate 8 g/ha): 15 | Barnyardgrass 3 plant response rating (barnyardgrass [1]; Rate 8 g/ha): 25 | Barnyardgrass 2 plant response rating (barnyardgrass [1]; Rate 16 g/ha): 25 | Barnyardgrass 3 plant response rating (barnyardgrass [1]; Rate 16 g/ha): 20 | Barnyardgrass 2 plant response rating (barnyardgrass [1]; Rate 32 g/ha): 45 | Barnyardgrass 3 plant response rating (barnyardgrass [1]; Rate 32 g/ha): 35 | Barnyardgrass 2 plant response rating (barnyardgrass [1]; Rate 64 g/ha): 60 | Barnyardgrass 3 plant response rating (barnyardgrass [1]; Rate 64 g/ha): 40 | Barnyardgrass 2 plant response rating (barnyardgrass [1]; Rate 125 g/ha): 85 | Barnyardgrass 3 plant response rating (barnyardgrass [1]; Rate 125 g/ha): 50 | Waterchestnut plant response rating (waterchestnut; Rate 4 g/ha): 20 | Waterchestnut plant response rating (waterchestnut; Rate 8 g/ha): 20 | Waterchestnut plant response rating (waterchestnut; Rate 16 g/ha): 30 | Waterchestnut plant response rating (waterchestnut; Rate 32 g/ha): 30 | Waterchestnut plant response rating (waterchestnut; Rate 64 g/ha): 60 | Japonica 1 plant response rating (Japonica rice [2]; Rate 8 g/ha): 15 | Japonica 2 plant response rating (Japonica rice [2]; Rate 8 g/ha): 10 | Japonica 1 plant response rating (Japonica rice [2]; Rate 16 g/ha): 10 | Japonica 2 plant response rating (Japonica rice [2]; Rate 16 g/ha): 15 | Japonica 1 plant response rating (Japonica rice [2]; Rate 32 g/ha): 15 | Japonica 2 plant response rating (Japonica rice [2]; Rate 32 g/ha): 20 | Japonica 1 plant response rating (Japonica rice [2]; Rate 64 g/ha): 15 | Japonica 2 plant response rating (Japonica rice [2]; Rate 64 g/ha): 15 | Japonica 1 plant response rating (Japonica rice [2]; Rate 125 g/ha): 20 | Japonica 2 plant response rating (Japonica rice [2]; Rate 125 g/ha): 20 | Japonica rice plant response rating (Japonica rice [3]; Rate 4 g/ha): 10 | Japonica rice plant response rating (Japonica rice [3]; Rate 8 g/ha): 10 | Japonica rice plant response rating (Japonica rice [3]; Rate 16 g/ha): 15 | Japonica rice plant response rating (Japonica rice [3]; Rate 32 g/ha): 20 | Japonica rice plant response rating (Japonica rice [3]; Rate 64 g/ha): 30 | Barnyardgrass 2 plant response rating (barnyardgrass [4]; Rate 4 g/ha): 20 | Barnyardgrass 2 plant response rating (barnyardgrass [4]; Rate 8 g/ha): 65 | Barnyardgrass 2 plant response rating (barnyardgrass [4]; Rate 16 g/ha): 70 | Barnyardgrass 2 plant response rating (barnyardgrass [4]; Rate 32 g/ha): 100 | Barnyardgrass 2 plant response rating (barnyardgrass [4]; Rate 64 g/ha): 100 | Umbrella sedge plant response rating (umbrella sedge; Rate 4 g/ha): 0 | Umbrella sedge plant response rating (umbrella sedge; Rate 8 g/ha): 0 | Umbrella sedge plant response rating (umbrella sedge; Rate 16 g/ha): 15 | Umbrella sedge plant response rating (umbrella sedge; Rate 32 g/ha): 30 | Umbrella sedge plant response rating (umbrella sedge; Rate 64 g/ha): 80 | Duck salad plant response rating (duck salad; Rate 4 g/ha): 0 | Duck salad plant response rating (duck salad; Rate 8 g/ha): 0 | Duck salad plant response rating (duck salad; Rate 16 g/ha): 0 | Duck salad plant response rating (duck salad; Rate 32 g/ha): 0 | Duck salad plant response rating (duck salad; Rate 64 g/ha): 45 | Arrowhead plant response rating (arrowhead; Rate 4 g/ha): 0 | Arrowhead plant response rating (arrowhead; Rate 8 g/ha): 0 | Arrowhead plant response rating (arrowhead; Rate 16 g/ha): 0 | Arrowhead plant response rating (arrowhead; Rate 32 g/ha): 0 | Arrowhead plant response rating (arrowhead; Rate 64 g/ha): 0
